Assay [1] relates to green peach aphid (GPA) adults. Kind of assay: Green peach aphid progeny production on treated pepper leaf discs. In kind it is in vivo, Myzus persicae. The note with it: 1.0 μg/mL in acetone, 100 μL per leaf disc; 3 days. How it is done: MBI-203 at 3% v/v concentration was tested to determine the effect of the compound on the progeny production of green peach aphid (GPA) adults. Bioassays were performed by iteming pepper leaf discs with MBI-203 at 3% v/v. Pepper leaf discs (from 3-4 week old pepper plants) were cut in circles using a 23 mm cookie cutter, selecting a flat portion of tbe leaf to make sure the disc can be evenly laid flat on the agar plate. A 1% agar solution was melted by heating and 30 μL, poured in each petri plate (16 mm×35 mm vented, polystyrene petri plates), just enough to cover the bottom of the plate to prop leaf discs and maintain humidity. The agar was allowed to solidify by cooling at room temperature. Leaf disc treatment was performed by pouring the treatment solution into a glass petri dish. With the solution in the dish, leaf discs were treated by soaking, gently swirling the dish to completely soak and coat the leaf discs. Treatment of leaf discs by soaking was done for 1 minute. […] Progeny (early nymphal instars) were counted 3 days after adult exposure to treated leaf discs. […]
Two concentrations of pare violacein compound in acetone, 0.5 μg/mL and 1.0 μg/mL were used in the test to determine the effect of the compound on the progeny production of green peach aphid (GPA) adults. […] Progeny (early nymphal instars) were counted 3 days after adult exposure to treated leaf discs. […]

Assay [2] deals with Green Peach Aphid adults (GPA). The assay is described as follows: Green peach aphid choice repellency bioassay of extracts, fractions and pure compound. It is filed as in vivo, Myzus persicae. The note with it: violacein purified from F9 and F10. How it is done:
Choice bioassays on Green Peach Aphid adults (GPA) were done using MBI-203 fractions and pure compound. Fractions and pure compound (violacein) obtained from the extraction of cell paste of C. substugae (MBI-203) were tested for insect efficacy through repellency bioassays. Pepper leaf discs (from 3-4 week old pepper plants) were cut in circles using a 23 mm cookie cutter, selecting a flat portion of the leaf to make sure the leaf disc can be evenly laid flat into the agar plate after treatment of the compound. One percent (%) agar in water was prepared. The 1% agar solution was melted by heating and poured into the 145 mm×20 mm petri plate, enough to cover the bottom surface of the plate to prop leaf discs and maintain humidity. The agar was allowed to solidify by cooling at room temperature.
Leaf disc treatment was done by pipetting gently 100 μL of MBI-203 extract unto the underside of the leaf disc. Treated leaf discs were then allowed to dry off by laying the disc flat unto a labeled 12-well plate cover. […]
All tests were done in three replications. […] Data for repellency of adults and nymphs was determined 24 hours post exposure of adults on treated leaf discs. The number of aphids (adults and nymphs) was counted and data recorded and analyzed, The percent repellency was computed as: % Repellency=100-{([N+A]“on petri dish”)/[N+A]“on petri dish” X100}, […]

Consider `O=C1NC(c2c[nH]c3ccc(O)cc23)=C/C1=C1\C(=O)Nc2ccccc21` [violacein], for which, in assay [1], the “reduction of progeny production compared to the negative control” value is “about 50%”. This molecule yielded a repellency in assay [2] of 300%.

These data come from patent US20160128339A1, “CHROMOBACTERIUM FORMULATIONS, COMPOSITIONS, METABLOITES AND THEIR USES” (priority 2011, published 2016).
